# Test results reported in EP2545050B1, “COMPOUNDS FOR THE TREATMENT OF HEPATITIS C” (Bristol-Myers Squibb Company, priority 2010, dated 2011).
# Columns and labels:
# HCV replicon = HCV replicon assay (FRET or luciferase reporter); assay type: cell-based; details: Hepatitis C virus; HCV replicon cells; Table 1
# Text: FRET Assay Preparation. To perform the HCV FRET screening assay, 96-well cell culture plates were used. The FRET peptide (Anaspec, Inc.) (Taliani et al., Anal. Biochem. 1996, 240, 60-67) contains a fluorescence donor, EDANS, near one end of the peptide and an acceptor, DABCYL, near the other end. The fluorescence of the peptide is quenched by […] resonance energy transfer (RET) between the donor and the acceptor, but as the NS3 protease cleaves the peptide the products are released from RET quenching and the fluorescence of the donor becomes apparent. The assay reagent was made as follows: 5X cell Luciferase cell culture lysis reagent from Promega (#E153A) diluted to 1X with dH2O, NaCl added to 150 mM final, the FRET peptide diluted to 20 µM final from a 2 mM stock.
# To prepare plates, HCV replicon cells, with or without a Renilla luciferase reporter gene, were trypsinized and placed into each well of a 96-well plate with titrated test compounds added in columns 3 through 12; columns 1 and 2 contained a control compound (HCV protease inhibitor), and the bottom row contained cells without compound. The plates were then placed in a CO2 incubator at 37 °C.
# Assays. Subsequent to addition of the test compounds described above (FRET Assay Preparation), at various times the plate was removed and Alamar blue solution (Trek Diagnostics, #00-100) was added per well as a measure of cellular toxicity. After reading in a Cytoflour 4000 instrument (PE Biosystems), plates were rinsed with PBS and then used for FRET assay by the addition of 30 ul of the FRET peptide assay reagent described above (FRET Assay Preparation) per well. The plate was then placed into the Cytoflour 4000 instrument which had been set to 340 excite/490 emission, automatic mode for 20 cycles and the plate read in a kinetic mode. Typically, the signal to noise using an endpoint analysis after the reads was at least three-fold. Alternatively, after Alamar blue reading, plates were rinsed with PBS, 50 ul of DMEM (high glucose) without phenol red was added and plates were then used for luciferase assay using the Promega Dual-Glo Luciferase Assay System.
# Compound analysis was determined by quantification of the relative HCV replicon inhibition and the relative cytotoxicity values. To calculate cytoxicity values, the average Alamar Blue fluorescence signals from the control wells were set as 100% non-toxic. The individual signals in each of the compound test wells were then divided by the average control signal and multiplied by 100% to determine […]. To calculate the HCV replicon inhibition values, an average background value was obtained from the two wells containing the highest amount of HCV protease inhibitor at the end of the assay period. These numbers were similar to those obtained from naive Huh-7 cells.
# The background numbers were then subtracted from the average signal obtained from the control wells and this number was used as 100% activity. The individual signals in each of the compound test wells were then divided by the averaged control values after background subtraction and multiplied by 100% to determine percent activity. EC50 values for a protease inhibitor titration were calculated as the concentration which caused a 50% reduction in FRET or luciferase activity. The two numbers generated for the compound plate, percent cytoxicity and percent activity were used to determine compounds of interest for further analysis.
# HCV Replicon Luciferase Reporter Assay
# The HCV replicon luciferase assay was developed to monitor the inhibitory effects of compounds described in the disclosure on HCV viral replication. Utilization of a replicon luciferase reporter assay was first described by Krieger et al (Krieger N, Lohmann V, and Bartenschlager R, J. Virol. 75(10):4614-4624 (2001)). […]
# HCV = details: extended dosing of the combination regimens; development suspended; cited from earlier work
Structure (SMILES),EC50 (HCV replicon) [nM],hepatic toxicity (HCV)
"CNC(=O)c1c(-c2ccc(F)cc2)nn2ccc(-c3cc(C(=O)NC4(c5cnccn5)CC4)c(OC)cc3C)c(F)c12 [4-fluoro-2-(4-fluorophenyl)-5-(4-methoxy-2-methyl-5-(1-(pyrazin-2-yl)cyclopropylcarbamoyl)phenyl)-N-methylpyrazolo[1,5-a]pyridine-3-carboxamide]",2 to 250,–
"CNC(=O)c1c(-c2ccc(F)cc2)nn2ccc(-c3cc(C(=O)NC4(c5ccnnc5)CC4)c(OC)cc3C)c(F)c12 [4-fluoro-2-(4-fluorophenyl)-5-(4-methoxy-2-methyl-5-(1-(pyridazin-4-yl)cyclopropylcarbamoyl)phenyl)-N-methylpyrazolo[1,5-a]pyridine-3-carboxamide]",1000 to 10000,–
"CNC(=O)c1c(-c2ccc(F)cc2)nn2ccc(-c3cc(C(=O)NC4(c5cc(F)ccn5)CC4)c(OC)nc3C)c(F)c12 [4-fluoro-2-(4-fluorophenyl)-5-(5-(1-(4-fluoropyridin-2-yl)cyclopropylcarbamoyl)-6-methoxy-2-methylpyridin-3-yl)-N-methylpyrazolo[1,5-a]pyridine-3-carboxamide]",2 to 250,–
"CNC(=O)c1c(-c2ccc(F)cc2)nn2ccc(-c3cc(C(=O)NC4(c5nccc(O)n5)CC4)c(OC)cc3C)c(F)c12 [4-fluoro-2-(4-fluorophenyl)-5-(5-(1-(4-hydroxypyrimidin-2-yl)cyclopropylcarbamoyl)-4-methoxy-2-methylphenyl)-N-methylpyrazolo[1,5-a]pyridine-3-carboxamide]",1000 to 10000,–
"CNC(=O)c1c(-c2ccc(F)cc2)nn2ccc(-c3cc(C(=O)NC4(c5ccccn5)CC4)c(OC)nc3C)c(F)c12 [4-fluoro-2-(4-fluorophenyl)-5-(6-methoxy-2-methyl-5-(1-(pyridin-2-yl)cyclopropylcarbamoyl)pyridin-3-yl)-N-methylpyrazolo[1,5-a]pyridine-3-carboxamide]",2 to 250,–
"CNC(=O)c1c(-c2ccc(F)cc2)nn2ccc(-c3cc(C(=O)NC4(c5ccccc5)CC4)c(OC)nc3C)c(F)c12 [4-fluoro-2-(4-fluorophenyl)-5-(6-methoxy-2-methyl-5-(1-phenylcyclopropylcarbamoyl)pyridin-3-yl)-N-methylpyrazolo[1,5-a]pyridine-3-carboxamide]",2 to 250,–
"CNC(=O)c1c(-c2ccc(F)cc2)nn2ccc(-c3cc(C(=O)NC4(c5ccccn5)CC4)c(OCC4CCOCC4)nc3C)c(F)c12 [4-fluoro-2-(4-fluorophenyl)-N-methyl-5-(2-methyl-5-(1-(pyridin-2-yl)cyclopropylcarbamoyl)-6-((tetrahydro-2H-pyran-4-yl)methoxy)pyridin-3-yl)pyrazolo[1,5-a]pyridine-3-carboxamide]",2 to 250,–
"CNC(=O)c1c(-c2ccc(F)cc2)nn2ccc(-c3cc(C(=O)NC4(c5ncccn5)CC4)c(OCC4CCOCC4)nc3C)c(F)c12 [4-fluoro-2-(4-fluorophenyl)-N-methyl-5-(2-methyl-5-(1-(pyrimidin-2-yl)cyclopropylcarbamoyl)-6-((tetrahydro-2H-pyran-4-yl)methoxy)pyridin-3-yl)pyrazolo[1,5-a]pyridine-3-carboxamide]",2 to 250,–
"CNC(=O)c1c(-c2ccc(F)cc2)nn2ccc(-c3cc(C(=O)NC4(c5ccccn5)CC4)c(OC(F)F)nc3C)c(F)c12 [5-(6-(difluoromethoxy)-2-methyl-5-(1-(pyridin-2-yl)cyclopropylcarbamoyl)pyridin-3-yl)-4-fluoro-2-(4-fluorophenyl)-N-methylpyrazolo[1,5-a]pyridine-3-carboxamide]",2 to 250,–
"CNC(=O)c1c(-c2ccc(F)cc2)nn2ccc(-c3cc(C(=O)NC4(c5ccccc5)CC4)c(OC(F)F)nc3C)c(F)c12 [5-(6-(difluoromethoxy)-2-methyl-5-(1-phenylcyclopropylcarbamoyl)pyridin-3-yl)-4-fluoro-2-(4-fluorophenyl)-N-methylpyrazolo[1,5-a]pyridine-3-carboxamide]",2 to 250,–
CNC(=O)c1c(-c2ccc(F)cc2)oc2cc(N(CCO)S(C)(=O)=O)c(C3CC3)cc12 [HCV-796],–,hepatic toxicity observed
